# Tests used:
# Experiment in all cases: relative viability (nuclei count vs DMSO), 5 days (fraction); higher = more cells survive
# Elesclomol + Pemetrexed = compound: CN(NC(=O)CC(=O)NN(C)C(=S)c1ccccc1)C(=S)c1ccccc1 [Elesclomol] + Nc1nc2[nH]cc(CCc3ccc(C(=O)N[C@@H](CCC(=O)O)C(=O)O)cc3)c2c(=O)[nH]1 [Pemetrexed] (partner 0.2 µM)
# In short: (§1)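 One day after seeding in 1536-well plates, lung cancer cell lines were dosed by pin tool. Dosing was either single-drug or a fixed anchor-drug dose plus five library-drug doses (not always all listed) in √10 steps. After 5 days, nuclei were stained in one fix-and-stain step and counted on 4× images, and relative viability is the nuclei count of treated wells over that of vehicle wells, given as the median of duplicate plates.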
# Elesclomol + AZD7762 = compound: CN(NC(=O)CC(=O)NN(C)C(=S)c1ccccc1)C(=S)c1ccccc1 [Elesclomol] + NC(=O)Nc1cc(-c2cccc(F)c2)sc1C(=O)N[C@H]1CCCNC1 [AZD7762] (partner 0.2 µM)
# In short: as §1
# Elesclomol + Palbociclib = compound: CN(NC(=O)CC(=O)NN(C)C(=S)c1ccccc1)C(=S)c1ccccc1 [Elesclomol] + CC(=O)c1c(C)c2cnc(Nc3ccc(N4CCNCC4)cn3)nc2n(C2CCCC2)c1=O [Palbociclib] (partner 0.5 µM)
# In short: as §1
# Elesclomol + Decitabine = compound: CN(NC(=O)CC(=O)NN(C)C(=S)c1ccccc1)C(=S)c1ccccc1 [Elesclomol] + Nc1ncn([C@H]2C[C@H](O)[C@@H](CO)O2)c(=O)n1 [Decitabine] (partner 2 µM)
# In short: as §1
# Elesclomol + Trametinib = compound: CN(NC(=O)CC(=O)NN(C)C(=S)c1ccccc1)C(=S)c1ccccc1 [Elesclomol] + CC(=O)Nc1cccc(-n2c(=O)n(C3CC3)c(=O)c3c(Nc4ccc(I)cc4F)n(C)c(=O)c(C)c32)c1 [Trametinib] (partner 0.02 µM)
# In short: as §1
# Elesclomol + Vorinostat = compound: CN(NC(=O)CC(=O)NN(C)C(=S)c1ccccc1)C(=S)c1ccccc1 [Elesclomol] + O=C(CCCCCCC(=O)Nc1ccccc1)NO [Vorinostat] (partner 1 µM)
# In short: as §1
# Elesclomol + OSI-027 = compound: CN(NC(=O)CC(=O)NN(C)C(=S)c1ccccc1)C(=S)c1ccccc1 [Elesclomol] + COc1cccc2cc(-c3nc([C@H]4CC[C@H](C(=O)O)CC4)n4ncnc(N)c34)[nH]c12 [OSI-027] (partner 0.5 µM)
# In short: as §1
# Elesclomol + Tozasertib = compound: CN(NC(=O)CC(=O)NN(C)C(=S)c1ccccc1)C(=S)c1ccccc1 [Elesclomol] + Cc1cc(Nc2cc(N3CCN(C)CC3)nc(Sc3ccc(NC(=O)C4CC4)cc3)n2)n[nH]1 [Tozasertib] (partner 0.1 µM)
# In short: as §1
# Elesclomol + Olaparib = compound: CN(NC(=O)CC(=O)NN(C)C(=S)c1ccccc1)C(=S)c1ccccc1 [Elesclomol] + O=C(c1cc(Cc2n[nH]c(=O)c3ccccc23)ccc1F)N1CCN(C(=O)C2CC2)CC1 [Olaparib] (partner 8 µM)
# In short: as §1
# Elesclomol = compound: CN(NC(=O)CC(=O)NN(C)C(=S)c1ccccc1)C(=S)c1ccccc1 [Elesclomol]
# In short: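 Vehicle-anchored 1536-well plates of lung cancer cell lines, held overnight at 37 °C, were pinned with five library-drug doses (not always all listed) spaced by √10. No medium change followed over the next 5 days, after which the cells were fixed, permeabilised and Hoechst-stained together and imaged at 4×. Nuclei were counted with MetaXpress, and viability is treated-well nuclei over vehicle-well nuclei, taken as a median across plates. Plates passed with control CV below 25% and at least one doubling.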
# Elesclomol + Dasatinib = compound: CN(NC(=O)CC(=O)NN(C)C(=S)c1ccccc1)C(=S)c1ccccc1 [Elesclomol] + Cc1nc(Nc2ncc(C(=O)Nc3c(C)cccc3Cl)s2)cc(N2CCN(CCO)CC2)n1 [Dasatinib] (partner 0.075 µM)
# In short: as §1
# Elesclomol + Luminespib = compound: CN(NC(=O)CC(=O)NN(C)C(=S)c1ccccc1)C(=S)c1ccccc1 [Elesclomol] + CCNC(=O)c1noc(-c2cc(C(C)C)c(O)cc2O)c1-c1ccc(CN2CCOCC2)cc1 [Luminespib] (partner 0.01 µM)
# In short: as §1
# Elesclomol + Foretinib = compound: CN(NC(=O)CC(=O)NN(C)C(=S)c1ccccc1)C(=S)c1ccccc1 [Elesclomol] + COc1cc2c(Oc3ccc(NC(=O)C4(C(=O)Nc5ccc(F)cc5)CC4)cc3F)ccnc2cc1OCCCN1CCOCC1 [Foretinib] (partner 0.25 µM)
# In short: as §1
# Elesclomol + Phenformin = compound: CN(NC(=O)CC(=O)NN(C)C(=S)c1ccccc1)C(=S)c1ccccc1 [Elesclomol] + N=C(N)NC(=N)NCCc1ccccc1 [Phenformin] (partner 250 µM)
# In short: as §1
cell line,measurement,setting,value
NCI-H1648,relative viability,Elesclomol + Pemetrexed; first compound 0.003162 µM,0.7
same,relative viability,Elesclomol + Pemetrexed; first compound 0.01 µM,0.599
same,relative viability,Elesclomol + Pemetrexed; first compound 0.03162 µM,0.752
same,relative viability,Elesclomol + Pemetrexed; first compound 0.1 µM,0.673
same,relative viability,Elesclomol + AZD7762; first compound 0.003162 µM,0.581
same,relative viability,Elesclomol + AZD7762; first compound 0.01 µM,0.686
same,relative viability,Elesclomol + AZD7762; first compound 0.03162 µM,0.61
same,relative viability,Elesclomol + AZD7762; first compound 0.1 µM,0.622
same,relative viability,Elesclomol + Palbociclib; first compound 0.003162 µM,0.301
same,relative viability,Elesclomol + Palbociclib; first compound 0.01 µM,0.285
same,relative viability,Elesclomol + Palbociclib; first compound 0.03162 µM,0.266
same,relative viability,Elesclomol + Palbociclib; first compound 0.1 µM,0.253
same,relative viability,Elesclomol + Decitabine; first compound 0.003162 µM,0.551
same,relative viability,Elesclomol + Decitabine; first compound 0.01 µM,0.469
same,relative viability,Elesclomol + Decitabine; first compound 0.03162 µM,0.509
same,relative viability,Elesclomol + Decitabine; first compound 0.1 µM,0.453
same,relative viability,Elesclomol + Trametinib; first compound 0.003162 µM,0.555
same,relative viability,Elesclomol + Trametinib; first compound 0.01 µM,0.415
same,relative viability,Elesclomol + Trametinib; first compound 0.03162 µM,0.46
same,relative viability,Elesclomol + Trametinib; first compound 0.1 µM,0.39
same,relative viability,Elesclomol + Vorinostat; first compound 0.003162 µM,0.338
same,relative viability,Elesclomol + Vorinostat; first compound 0.01 µM,0.416
same,relative viability,Elesclomol + Vorinostat; first compound 0.03162 µM,0.385
same,relative viability,Elesclomol + Vorinostat; first compound 0.1 µM,0.313
same,relative viability,Elesclomol + OSI-027; first compound 0.003162 µM,0.263
same,relative viability,Elesclomol + OSI-027; first compound 0.01 µM,0.276
same,relative viability,Elesclomol + OSI-027; first compound 0.03162 µM,0.224
same,relative viability,Elesclomol + OSI-027; first compound 0.1 µM,0.295
same,relative viability,Elesclomol + Tozasertib; first compound 0.003162 µM,0.379
same,relative viability,Elesclomol + Tozasertib; first compound 0.01 µM,0.409
same,relative viability,Elesclomol + Tozasertib; first compound 0.03162 µM,0.506
same,relative viability,Elesclomol + Tozasertib; first compound 0.1 µM,0.54
same,relative viability,Elesclomol + Olaparib; first compound 0.003162 µM,0.675
same,relative viability,Elesclomol + Olaparib; first compound 0.01 µM,0.753
same,relative viability,Elesclomol + Olaparib; first compound 0.03162 µM,0.835
same,relative viability,Elesclomol + Olaparib; first compound 0.1 µM,0.796
same,relative viability,Elesclomol; 0.003162 µM,0.606
same,relative viability,Elesclomol; 0.01 µM,0.725
same,relative viability,Elesclomol; 0.03162 µM,0.827
same,relative viability,Elesclomol; 0.1 µM,0.76
NCI-H2342,relative viability,Elesclomol + Dasatinib; first compound 0.003162 µM,0.318
same,relative viability,Elesclomol + Dasatinib; first compound 0.01 µM,0.305
same,relative viability,Elesclomol + Dasatinib; first compound 0.03162 µM,0.247
same,relative viability,Elesclomol + Dasatinib; first compound 0.1 µM,0.267
same,relative viability,Elesclomol + Pemetrexed; first compound 0.003162 µM,0.732
same,relative viability,Elesclomol + Pemetrexed; first compound 0.01 µM,0.634
same,relative viability,Elesclomol + Pemetrexed; first compound 0.03162 µM,0.728
same,relative viability,Elesclomol + Pemetrexed; first compound 0.1 µM,0.705
same,relative viability,Elesclomol + AZD7762; first compound 0.003162 µM,0.385
same,relative viability,Elesclomol + AZD7762; first compound 0.01 µM,0.461
same,relative viability,Elesclomol + AZD7762; first compound 0.03162 µM,0.4
same,relative viability,Elesclomol + AZD7762; first compound 0.1 µM,0.441
same,relative viability,Elesclomol + Palbociclib; first compound 0.003162 µM,0.495
same,relative viability,Elesclomol + Palbociclib; first compound 0.01 µM,0.489
same,relative viability,Elesclomol + Palbociclib; first compound 0.03162 µM,0.517
same,relative viability,Elesclomol + Palbociclib; first compound 0.1 µM,0.411
same,relative viability,Elesclomol + Luminespib; first compound 0.003162 µM,0.665
same,relative viability,Elesclomol + Luminespib; first compound 0.01 µM,0.551
same,relative viability,Elesclomol + Luminespib; first compound 0.03162 µM,0.391
same,relative viability,Elesclomol + Luminespib; first compound 0.1 µM,0.322
same,relative viability,Elesclomol + Decitabine; first compound 0.003162 µM,0.697
same,relative viability,Elesclomol + Decitabine; first compound 0.01 µM,0.866
same,relative viability,Elesclomol + Decitabine; first compound 0.03162 µM,0.784
same,relative viability,Elesclomol + Decitabine; first compound 0.1 µM,0.602
same,relative viability,Elesclomol + Trametinib; first compound 0.003162 µM,0.877
same,relative viability,Elesclomol + Trametinib; first compound 0.01 µM,0.839
same,relative viability,Elesclomol + Trametinib; first compound 0.03162 µM,0.756
same,relative viability,Elesclomol + Trametinib; first compound 0.1 µM,0.616
same,relative viability,Elesclomol + Foretinib; first compound 0.003162 µM,1.08
same,relative viability,Elesclomol + Foretinib; first compound 0.01 µM,0.915
same,relative viability,Elesclomol + Foretinib; first compound 0.03162 µM,0.437
same,relative viability,Elesclomol + Foretinib; first compound 0.1 µM,0.344
same,relative viability,Elesclomol + Phenformin; first compound 0.003162 µM,0.482
same,relative viability,Elesclomol + Phenformin; first compound 0.01 µM,0.596
same,relative viability,Elesclomol + Phenformin; first compound 0.03162 µM,0.355
same,relative viability,Elesclomol + Phenformin; first compound 0.1 µM,0.292
same,relative viability,Elesclomol + Vorinostat; first compound 0.003162 µM,0.732
same,relative viability,Elesclomol + Vorinostat; first compound 0.01 µM,0.8
same,relative viability,Elesclomol + Vorinostat; first compound 0.03162 µM,0.757
same,relative viability,Elesclomol + Vorinostat; first compound 0.1 µM,0.771
same,relative viability,Elesclomol + OSI-027; first compound 0.003162 µM,0.648
same,relative viability,Elesclomol + OSI-027; first compound 0.01 µM,0.583
same,relative viability,Elesclomol + OSI-027; first compound 0.03162 µM,0.395
same,relative viability,Elesclomol + OSI-027; first compound 0.1 µM,0.301
same,relative viability,Elesclomol + Tozasertib; first compound 0.003162 µM,0.466
same,relative viability,Elesclomol + Tozasertib; first compound 0.01 µM,0.476
same,relative viability,Elesclomol + Tozasertib; first compound 0.03162 µM,0.332
same,relative viability,Elesclomol + Tozasertib; first compound 0.1 µM,0.324
same,relative viability,Elesclomol + Olaparib; first compound 0.003162 µM,0.476
same,relative viability,Elesclomol + Olaparib; first compound 0.01 µM,0.37
same,relative viability,Elesclomol + Olaparib; first compound 0.03162 µM,0.434
same,relative viability,Elesclomol + Olaparib; first compound 0.1 µM,0.367
same,relative viability,Elesclomol; 0.003162 µM,0.865
same,relative viability,Elesclomol; 0.01 µM,1.02
same,relative viability,Elesclomol; 0.03162 µM,0.571
same,relative viability,Elesclomol; 0.1 µM,0.612

# From the supplement of paper PMC10307832
